Source: patent US8394792B2, “Heterocyclic derivatives” (C&C Research Laboratories, priority 2008, dated 2013)
Converted amounts (≈) assume the structure as drawn. Structures can show the parent of a compound that is named as a salt. Where two headings read alike, the source gives them in different places.

Legend:
hURAT1 = molecular target: T1, hURAT1 (Homo sapiens, UniProt Q96S37); test: Test for inhibiting urate reuptake activity via hURAT1 (uric acid transport assay in hURAT1-overexpressed HEK293 cell line); type: cell-based; settings: hURAT1-overexpressed HEK293 cells, [14C]-uric acid uptake, 100 μM uric acid; read-out: IC50 (μM) hURAT, level of uric acid reuptake inhibition
T1 construct: expressed in transfected cells; host or cells: HEK293 (human kidney cell line), transient transfection with Fugene6
T1 sequence (Q96S37 1-553): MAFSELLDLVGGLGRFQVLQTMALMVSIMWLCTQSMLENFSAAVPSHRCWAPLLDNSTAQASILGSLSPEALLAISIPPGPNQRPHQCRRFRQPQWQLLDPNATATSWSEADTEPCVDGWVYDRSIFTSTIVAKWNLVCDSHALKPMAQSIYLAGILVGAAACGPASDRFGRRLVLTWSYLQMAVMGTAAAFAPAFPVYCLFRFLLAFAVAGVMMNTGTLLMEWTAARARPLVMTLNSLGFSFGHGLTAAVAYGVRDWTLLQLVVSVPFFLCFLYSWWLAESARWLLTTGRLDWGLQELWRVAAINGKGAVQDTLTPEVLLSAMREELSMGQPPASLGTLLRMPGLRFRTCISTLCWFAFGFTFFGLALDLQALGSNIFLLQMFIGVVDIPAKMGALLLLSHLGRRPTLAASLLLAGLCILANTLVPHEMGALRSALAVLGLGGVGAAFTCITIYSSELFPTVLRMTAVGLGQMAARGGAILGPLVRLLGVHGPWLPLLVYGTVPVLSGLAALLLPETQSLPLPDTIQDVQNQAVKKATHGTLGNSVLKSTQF
Protocol: Test for Inhibiting Urate Reuptake Activity Via hURAT1
[hURAT1 Overexpression by Transient Transfection in Human Kidney Cell Line]
A human kidney cell line, HEK293 was incubated by using OptiMEM medium in 100 mm dish at (3*10^6 cells) for 24 hours. In order for the expression of hURAT1, a transfection mixture solution (Fugene6 18 μl:hURAT1 DNA 6 μg=3:1, in 600 μl OptiMEM medium/dish) was prepared and kept for 15 minutes at room temperature. To each dish, 600 μl of the mixture solution was injected and then incubated in 37[…] cell incubator for 24 hours. The hURAT1-overexpressed HEK293 cell line was trypsinized and cells were harvested. Cells were resuspended in medium and seeded at 6*10^5 cells/well and incubated for 24 hours in 24-well plate which was surface-coated with Poly-D-Lysine.
[Uric Acid Transport Assay in hURAT1-Overexpressed HEK293 Cell Line]
For each concentration, the stock sample solution was diluted in PBS (1 μl in 800 μl of PBS) as 1.25 fold concentrated working sample solution to obtain final concentrations of 0.01, 0.1, 1 and 10 μM. The hURAT1-overexpressed cell line was washed with 1 ml of PBS. After washing, PBS was discarded and the sample solution was diluted by 1.25 fold with PBS. Preincubation of cells with 200 μl/well of sample solution made above was conducted for 30 minutes in 37[…] cell incubator. After the incubation, each well was treated with 50 μl of PBS containing 500 μM [^14C]-uric acid (final 100 μM of uric acid/well). Cells were incubated for 2 minutes. The cells were washed twice with 1 ml of PBS.
To measure the uric acid uptake, each well was treated with 150 μl of M-per buffer (PIERCE) and kept in 37° C. cell incubator for 30 minutes to make cell lysates. 150 μl of cell lysates was transferred into test tube and 4 ml of scintillation cocktail was added. CPM value of [^14C]-uric acid absorbed into cells was detected using liquid scintillation counter. IC50 for the inhibition of uric acid uptake by each test sample was analyzed by computational numerical processing.

[1] = Test for solubility according to pH; type: physicochemical; settings: 37 °C, thermodynamic from solid, 37° C. 2 hours
Protocol: 2.0 g of sodium chloride was dissolved in 7.0 mL of hydrochloric acid and water to make the total volume of 1000 mL. This solution was colorless and clear. Its pH was about 1.2.
To 250 mL of 0.2 mol/L potassium dihydrogen phosphate solution, 118 mL of 0.2 mol/L sodium hydroxide solution and water were added to make the total volume of 1000 mL. This solution was colorless and clear. Its pH was about 6.8.
For the compounds of present invention prepared in the examples, the test samples were prepared in each of the first and second solutions with 2 mg/mL concentration. This test sample solution was agitated for 10 seconds, sonicated for 1 minute and heated at 37° C. for 2 hours. The heated test sample solution was filtered to remove undissolved compounds therein. From filtered solution, 100 μl of the completely dissolved solution was sampled and 100 μl of acetonitrile was added thereto to make test sample solution. For each analysis of test sample solution, the solubility was measured by using liquid chromatography.

CYP2C9 = CYP2C9 (Homo sapiens, UniProt P11712); test: biochemical
CYP2C9, sequence (P11712 whole entry): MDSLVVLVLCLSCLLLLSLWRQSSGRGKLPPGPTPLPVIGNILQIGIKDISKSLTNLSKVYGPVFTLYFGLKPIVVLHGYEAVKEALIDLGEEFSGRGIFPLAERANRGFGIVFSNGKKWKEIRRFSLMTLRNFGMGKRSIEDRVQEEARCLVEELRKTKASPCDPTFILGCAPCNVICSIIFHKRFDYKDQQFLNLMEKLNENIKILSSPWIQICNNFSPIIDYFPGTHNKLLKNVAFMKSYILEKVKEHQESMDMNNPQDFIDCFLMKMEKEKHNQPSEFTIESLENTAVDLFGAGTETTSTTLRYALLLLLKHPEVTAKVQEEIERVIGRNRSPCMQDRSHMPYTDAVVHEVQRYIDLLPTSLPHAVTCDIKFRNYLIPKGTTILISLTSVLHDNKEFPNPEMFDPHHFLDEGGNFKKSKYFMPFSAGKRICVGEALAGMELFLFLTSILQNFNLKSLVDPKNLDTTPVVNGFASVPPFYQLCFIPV

[2] = pH 1.2, simulated gastric fluid, first solution pH about 1.2, 2 mg/mL, read-out: Solubility (μg/mL) pH 1.2
[3] = pH 6.8, aqueous buffer, second solution pH about 6.8, 2 mg/mL, read-out: Solubility (μg/mL) pH 6.8

SMILES | IC50 (hURAT1) [µM] | solubility at 2 h [1, 2] [µg/mL] | solubility at 2 h [1, 3] [µg/mL] | IC50 (CYP2C9) [nM]
O=C(c1cc(Br)c(O)c(Br)c1)N1CCOc2ncccc21 [Compound 1, (3,5-dibromo-4-hydroxy-phenyl)-(2,3-dihydro-pyrido[2,3-b][1,4]oxazin-1-yl)-methanone] | 0.079 | 56.1 (≈ 135 µM) | 277 (≈ 669 µM) | 12100
Br.O=C(c1cc(Cl)c(O)c([N+](=O)[O-])c1)N1CCOc2cnccc21 [Compound 17, (3-chloro-4-hydroxy-5-nitro-phenyl)-(2,3-dihydro-pyrido[3,4-b][1,4]oxazin-1-yl)-methanone bromic acid salt] | 1 | 1610 | 1890 | –
COc1c(Br)cc(C(=O)N2CCOc3ncc(C(F)(F)F)cc32)cc1Br [Compound 22-1, (3,5-dibromo-4-methoxy-phenyl)-(7-trifluoromethyl-2,3-dihydro-pyrido[2,3-b][1,4]oxazin-1-yl)-methanone] | 0.0888 | – | – | 13400
O=C(c1cc(Br)c(O)c(Br)c1)N1CCOc2ncc(Br)cc21 [Compound 25, (7-bromo-2,3-dihydro-pyrido[2,3-b][1,4]oxazin-1-yl)-(3,5-dibromo-4-hydroxy-phenyl)-methanone] | 0.0073 | – | – | > 20000
COc1c(Br)cc(C(=O)N2CCOc3ncc(C)cc32)cc1Br [Compound 27-1, (3,5-dibromo-4-methoxy-phenyl)-(7-methyl-2,3-dihydro-pyrido[2,3-b][1,4]oxazin-1-yl)-methanone] | 0.036 | – | – | > 20000
O=C(c1ccc(O)c(Br)c1)N1CCOc2ccncc21 [Compound 38, (3-bromo-4-hydroxy-phenyl)-(2,3-dihydro-pyrido[4,3-b][1,4]oxazin-4-yl)-methanone] | 0.0964 | – | – | > 20000
O=C(c1cc(Br)c(O)c(Br)c1)N1CCOc2ncc(-c3ccc(C(F)(F)F)cc3)cc21 [Compound 45, (3,5-dibromo-4-hydroxy-phenyl)-[7-(4-trifluoromethyl-phenyl)-2,3-dihydro-pyrido[2,3-b][1,4]oxazin-1-yl]-methanone] | 0.0197 | – | – | 1180
O=C(c1cc(Br)c(O)c(Br)c1)N1CCOc2ncc(-c3ccccc3C(F)(F)F)cc21 [Compound 46, (3,5-dibromo-4-hydroxy-phenyl)-[7-(2-trifluoromethyl-phenyl)-2,3-dihydro-pyrido[2,3-b][1,4]oxazin-1-yl]-methanone] | 0.0047 | – | – | 1090
COc1c(Br)cc(C(=O)N2CCOc3ncc(C#N)cc32)cc1Br [Compound 47-1, 1-(3,5-dibromo-4-methoxy-benzoyl)-2,3-dihydro-1H-pyrido[2,3-b][1,4]oxazin-7-carbonitrile] | 0.516 | – | – | > 20000
COc1c(Br)cc(C(=O)N2CCOc3ncc(-c4cccc(N(C)C)c4)cc32)cc1Br [Compound 48, (3,5-dibromo-4-methoxy-phenyl)-[7-(3-dimethylamino-phenyl)-2,3-dihydro-pyrido[2,3-b][1,4]oxazin-1-yl]-methanone] | 0.0933 | – | – | 1680
COc1c(Br)cc(C(=O)N2CCOc3ncc(-c4cccc([N+](=O)[O-])c4)cc32)cc1Br [Compound 49, (3,5-dibromo-4-methoxy-phenyl)-[7-(3-nitro-phenyl)-2,3-dihydro-pyrido[2,3-b][1,4]oxazin-1-yl]-methanone] | 0.311 | – | – | > 20000
O=C(c1cc(Br)c(O)c(Br)c1)N1CCOc2ncc(-c3cccc([N+](=O)[O-])c3)cc21 [Compound 50, (3,5-dibromo-4-hydroxy-phenyl)-[7-(3-nitro-phenyl)-2,3-dihydro-pyrido[2,3-b][1,4]oxazin-1-yl]-methanone] | 0.0044 | – | – | 1260
Oc1c(Br)cc(C(=S)N2CCOc3ccncc32)cc1Br [Compound 51, (3,5-dibromo-4-hydroxy-phenyl)-(2,3-dihydro-pyrido[4,3-b][1,4]oxazin-4-yl)-methanethione] | 0.0115 | – | – | 8800
O=C(c1cc(Br)c(O)c(Br)c1)N1CCOc2ncc(-c3cccnc3)cc21 [Compound 52, (3,5-dibromo-4-hydroxy-phenyl)-(7-pyridin-3-yl-2,3-dihydro-pyrido[2,3-b][1,4]oxazin-1-yl]-methanone] | 0.0103 | – | – | > 20000
O=C(c1cc(Br)c(O)c(Br)c1)N1CCOc2ncc(-c3ccoc3)cc21 [Compound 53, (3,5-dibromo-4-hydroxy-phenyl)-(7-furan-3-yl-2,3-dihydro-pyrido[2,3-b][1,4]oxazin-1-yl]-methanone] | 0.0562 | – | – | 10300
O=C(c1cc(Br)c(O)c(Br)c1)N1CCOc2c1cnc1ccccc21 [Compound 55, (3,5-dibromo-4-hydroxy-phenyl)-(2,3-dihydro-4-oxa-1,9-diaza-phenanthren-1-yl)-methanone] | 0.0488 | – | – | 8870
COc1c(Br)cc(C(=O)N2CCOc3nc(C)ccc32)cc1Br [Compound 58, (3,5-dibromo-4-methoxy-phenyl)-(6-methyl-2,3-dihydro-pyrido[2,3-b][1,4]oxazin-1-yl)-methanone] | 0.742 | – | – | > 20000
O=C(c1cc(Br)c(O)c(Br)c1)N1CCOc2ncc(-c3cncc4ccccc34)cc21 [Compound 61, (3,5-dibromo-4-hydroxy-phenyl)-(7-isoquinolin-4-yl-2,3-dihydro-pyrido[2,3-b][1,4]oxazin-1-yl)-methanone] | 0.002 | – | – | 1230
O=C(c1cc(Br)c(O)c(Br)c1)N1CCOc2ncc(-c3cccc(C(F)(F)F)c3)cc21 [Compound 63, (3,5-dibromo-4-hydroxy-phenyl)-[7-(3-trifluoromethyl-phenyl)-2,3-dihydro-pyrido[2,3-b][1,4]oxazin-1-yl]-methanone] | 0.0123 | – | – | 1110
N#Cc1ccc(-c2cnc3c(c2)N(C(=O)c2cc(Br)c(O)c(Br)c2)CCO3)cc1 [Compound 65, 4-[1-(3,5-dibromo-4-hydroxy-benzoyl)-2,3-dihydro-1H-pyrido[2,3-b][1,4]oxazin-7-yl]-benzonitrile] | 0.003 | – | – | 12400
O=C(c1cc(Br)c(O)c(Br)c1)N1CCOc2ncc(-c3ccc(OC(F)(F)F)cc3)cc21 [Compound 66, (3,5-dibromo-4-hydroxy-phenyl)-[7-(4-trifluoromethoxy-phenyl)-2,3-dihydro-pyrido[2,3-b][1,4]oxazin-1-yl]-methanone] | 0.0358 | – | – | 1340
COc1cncc(-c2cnc3c(c2)N(C(=O)c2cc(Br)c(O)c(Br)c2)CCO3)c1 [Compound 68, (3,5-dibromo-4-hydroxy-phenyl)-[7-(5-methoxy-pyridin-3-yl)-2,3-dihydro-pyrido[2,3-b][1,4]oxazin-1-yl]-methanone] | 0.0232 | – | – | 1390
Cc1cnc2c(c1)N(C(=O)c1ccc(O)c(C(F)(F)F)c1)CCO2 [Compound 69, (4-hydroxy-3-trifluoromethyl-phenyl)-(7-methyl-2,3-dihydro-pyrido[2,3-b][1,4]oxazin-1-yl)-methanone] | 0.0331 | – | – | > 20000
Oc1c(Br)cc(C(=S)N2CCOc3ccncc32)cc1Br [Compound 74, (3,5-dibromo-4-hydroxy-phenyl)-(2,3-dihydro-pyrido[4,3-b][1,4]oxazin-4-yl)-methanethione trifluoroacetic acid salt] | 0.006 | – | – | 16700
